Each molecule was assayed against T1, Human CGRP1 Receptor (Homo sapiens, UniProt O60894+Q16602) (assay: CGRP Binding Assay ([125I]-CGRP radioligand displacement, SK-N-MC membrane homogenate)). Settings: [125I]-CGRP displacement, SK-N-MC homogenate, room temperature 2 h; read-out: Human CGRP1 Receptor IC50.
T1 construct: endogenous in cells; host or cells: SK-N-MC cells (membrane homogenate)
T1 sequence (Q16602 23-461): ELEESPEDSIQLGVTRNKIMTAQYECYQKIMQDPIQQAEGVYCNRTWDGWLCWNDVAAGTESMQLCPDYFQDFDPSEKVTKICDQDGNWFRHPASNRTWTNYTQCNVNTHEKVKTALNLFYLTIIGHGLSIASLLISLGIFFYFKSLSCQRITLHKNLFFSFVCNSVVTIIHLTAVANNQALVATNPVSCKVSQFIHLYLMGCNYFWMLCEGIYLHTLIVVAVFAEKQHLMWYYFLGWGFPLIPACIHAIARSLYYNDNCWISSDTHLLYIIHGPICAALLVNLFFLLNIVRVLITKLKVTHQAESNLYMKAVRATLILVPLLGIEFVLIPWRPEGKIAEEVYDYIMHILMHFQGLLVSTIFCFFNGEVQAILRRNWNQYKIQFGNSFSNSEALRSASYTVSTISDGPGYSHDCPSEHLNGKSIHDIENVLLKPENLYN
T1 sequence (O60894 27-148): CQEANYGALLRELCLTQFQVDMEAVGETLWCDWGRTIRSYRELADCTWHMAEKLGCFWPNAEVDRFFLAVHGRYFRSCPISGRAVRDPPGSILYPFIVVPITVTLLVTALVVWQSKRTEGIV
Experimental: Tissue Culture. SK-N-MC cells were grown at 37° C. in 5% CO2 as a monolayer in medium consisting of MEM with Earle's salts and L-glutamine (Gibco) supplemented with 10% fetal bovine serum (Gibco).
Cell Pellets. […] The cells were transferred from plates to polypropylene tubes (16×100 mm) and homogenized using a polytron. Homogenates were centrifuged at 32,000×g for 30 min. The pellets were resuspended in cold hypotonic lysis buffer with 0.1% mammalian protease inhibitor cocktail (Sigma) and assayed for protein concentration. The SK-N-MC homogenate was then aliquoted and stored at −80° C. until needed.
Radioligand Binding Assay. The compounds of invention were solubilized and carried through serial dilutions using 100% DMSO. Aliquots from the compound serial dilutions were further diluted 25 fold into assay buffer (50 mM Tris-Cl pH 7.5, 5 mM MgCl2, 0.005% Triton X-100) and transferred (volume 50 μl) into 96 well assay plates. […] SK-N-MC pellets were thawed, diluted in assay buffer with fresh 0.1% mammalian protease inhibitor cocktail (Sigma), and homogenized again. SK-N-MC homogenate (5 μg/well) was added in a volume of 100 μl. The assay plates were then incubated at room temperature for 2 h. Assays were stopped by addition of excess cold wash buffer (20 mM Tris-Cl pH 7.5, 0.1% BSA) immediately followed by filtration over glass fiber filters (Whatman GF/B) previously soaked in 0.5% PEI. Non-specific binding was defined with 1 μM beta-CGRP. Protein bound radioactivity was determined using a gamma or scintillation counter.
For `Cc1cc(CC(OC(=O)N2CCC(N3Cc4ccccc4NC3=O)CC2)c2cc(CO)ccn2)cc2cn[nH]c12` (racemic) [Example 46, (±)-1-(4-(Hydroxymethyl)pyridin-2-yl)-2-(7-methyl-1H-indazol-5-yl)ethyl 4-(2-oxo-1,2-dihydroquinazolin-3(4H)-yl)piperidine-1-carboxylate], the IC50 was less than 10 nM. `Cc1cc(C[C@@H](OC(=O)N2CCC(N3Cc4ccccc4NC3=O)CC2)c2nc(-c3ccncc3)no2)cc2cn[nH]c12` [Example 101, (R)-2-(7-Methyl-1H-indazol-5-yl)-1-(3-(pyridin-4-yl)-1,2,4-oxadiazol-5-yl)ethyl 4-(2-oxo-1,2-dihydroquinazolin-3(4H)-yl)piperidine-1-carboxylate] was tested, and the IC50 was 10 to 100 nM. `CCc1cc(CC(NC(=O)N2CCC(N3Cc4ccccc4NC3=O)CC2)c2nnnn2C)cc2c(C)n[nH]c12` (racemic) [Example 17, (±)-4-(2-Oxo-1,4-dihydro-2H-quinazolin-3-yl)-piperidine-1-carboxylic acid [2-(7-ethyl-3-methyl-1H-indazol-5-yl)-1-(1-methyl-1H-tetrazol-5-yl)-ethyl]-amide] was tested, and the IC50 was 10 to 100 nM. For `Cc1cc(CC(NC(=O)N2CCC(c3cc4ccccc4[nH]c3=O)CC2)c2cc3ccccc3cn2)cc2cn[nH]c12` (stereo not drawn) [Example 36, N-(1-(Isoquinolin-3-yl)-2-(7-methyl-1H-indazol-5-yl)ethyl)-4-(2-oxo-1,2-dihydroquinolin-3-yl)piperidine-1-carboxamide], the IC50 was less than 10 nM. With `Cc1cc(CC(NC(=O)N2CCC(N3Cc4ccccc4NC3=O)CC2)c2cccc(Br)n2)cc2cn[nH]c12` (racemic) [Example 30, (±)-N-(1-(6-Bromopyridin-2-yl)-2-(7-methyl-1H-indazol-5-yl)ethyl)-4-(2-oxo-1,2-dihydroquinazolin-3(4H)-yl)piperidine-1-carboxamide] the IC50 was less than 10 nM. Work on `Cc1ccc(C(CC(=O)N2CCC(N3Cc4ccccc4NC3=O)CC2)Cc2cc(C)c3[nH]ncc3c2)nc1` (racemic) [Example 26, (±)-3-(1-(4-(7-Methyl-1H-indazol-5-yl)-3-(5-methylpyridin-2-yl)butanoyl)piperidin-4-yl)-3,4-dihydroquinazolin-2(1H)-one] yielded an IC50 of 10 to 100 nM. In the case of `Cc1cc(CC(CC(=O)N2CCC(c3cc4ccccc4[nH]c3=O)CC2)c2ccccn2)cc2cn[nH]c12` (racemic) [Example 24, (±)-3-(1-(4-(7-Methyl-1H-indazol-5-yl)-3-(pyridin-2-yl)butanoyl)piperidin-4-yl)quinolin-2(1H)-one], the IC50 is reported as 10 to 100 nM. `CCc1cc(CC(NC(=O)N2CCC(N3Cc4ccccc4NC3=O)CC2)c2nnn(CC(=O)c3ccccc3)n2)cc2c(C)n[nH]c12` (racemic) [Example 20, (±)-4-(2-Oxo-1,4-dihydro-2H-quinazolin-3-yl)-piperidine-1-carboxylic acid [2-(7-ethyl-3-methyl-1H-indazol-5-yl)-1-(2-oxo-2Phenethyl-2H-tetrazol-5-yl)-ethyl]-amide] gave an IC50 of 10 to 100 nM. In the case of `Cc1cc(CC(NC(=O)N2CCC(N3Cc4ccccc4NC3=O)CC2)c2ncc(Br)[nH]2)cc2cn[nH]c12` (racemic) [Example 86, (±)-N-(1-(4-Bromo-1H-imidazol-2-yl)-2-(7-methyl-1H-indazol-5-yl)ethyl)-4-(2-oxo-1,2-dihydroquinazolin-3(4H)-yl)piperidine-1-carboxamide], the IC50 is reported as less than 10 nM. In the case of `Cc1cc(CC(NC(=O)N2CCC(N3Cc4ccccc4NC3=O)CC2)c2cc([N+](=O)[O-])ccn2)cc2cn[nH]c12` (racemic) [Example 32, (±)-N-(2-(7-Methyl-1H-indazol-5-yl)-1-(4-nitropyridin-2-yl)ethyl)-4-(2-oxo-1,2-dihydroquinazolin-3(4H)-yl)piperidine-1-carboxamide], the IC50 is reported as less than 10 nM. Work on `Cc1cc(CC(NC(=O)N2CCC(N3Cc4ccccc4NC3=O)CC2)c2nccn2Cc2cccc(C(=O)O)c2)cc2cn[nH]c12` (racemic) [Example 76, (±)-3-((2-(2-(7-Methyl-1H-indazol-5-yl)-1-(4-(2-oxo-1,2-dihydroquinazolin-3(4H)-yl)piperidine-1-carboxamido)ethyl)-1H-imidazol-1-yl)methyl)benzoic acid] yielded an IC50 of less than 10 nM. For `Cc1cc(CC(OC(=O)N2CCC(N3Cc4ccccc4NC3=O)CC2)c2ccncc2)cc2cn[nH]c12` (stereo not drawn) [Example 57, 2-(7-Methyl-1H-indazol-5-yl)-1-(pyridin-4-yl)ethyl 4-(2-oxo-1,2-dihydroquinazolin-3(4H)-yl)piperidine-1-carboxylate], the IC50 was 100 to 1000 nM. For `Cc1cn(Cc2cccc(F)c2)c(C(Cc2cc(C)c3[nH]ncc3c2)NC(=O)N2CCC(N3Cc4ccccc4NC3=O)CC2)n1` (racemic) [Example 89, (±)-N-(1-(1-(3-Fluorobenzyl)-4-methyl-1H-imidazol-2-yl)-2-(7-methyl-1H-indazol-5-yl)ethyl)-4-(2-oxo-1,2-dihydroquinazolin-3(4H)-yl)piperidine-1-carboxamide], the IC50 was less than 10 nM. `Cc1cc(C[C@@H](NC(=O)N2CCC(N3Cc4ccccc4NC3=O)CC2)c2ncc3ccccn23)cc2cn[nH]c12` [Example 85, (R)-N-(1-(H-Imidazo[1,5-a]pyridin-3-yl)-2-(7-methyl-1H-indazol-5-yl)ethyl)-4-(2-oxo-1,2-dihydroquinazolin-3(4H)-yl)piperidine-1-carboxamide] was tested, and the IC50 was less than 10 nM. `CCc1cc(CC(NC(=O)N2CCC(N3Cc4ccccc4NC3=O)CC2)c2nnn[nH]2)cc2c(C)n[nH]c12` (racemic) [Example 14, (±)-4-(2-Oxo-1,4-dihydro-2H-quinazolin-3-yl)-piperidine-1-carboxylic acid [2-(7-ethyl-3-methyl-1H-indazol-5-yl)-1-(1H-tetrazol-5-yl)-ethyl]-amide] was tested, and the IC50 was 100 to 1000 nM. For `Cc1cc(CC(NC(=O)N2CCC(N3Cc4ccccc4NC3=O)CC2)c2ncc(Br)n2Cc2cc(F)cc(F)c2)cc2c[nH]nc12` (racemic) [Example 88, (±)-N-(1-(1-(3,5-Difluorobenzyl)-5-bromo-1H-imidazol-2-yl)-2-(7-methyl-2H-indazol-5-yl)ethyl)-4-(2-oxo-1,2-dihydroquinazolin-3(4H)-yl)piperidine-1-carboxamide], the IC50 was less than 10 nM. `Cc1cc(CC(NC(=O)N2CCC(N3Cc4ccccc4NC3=O)CC2)c2cc(F)ccn2)cc2cn[nH]c12` (racemic) [Example 33, (±)-N-(1-(4-Fluoropyridin-2-yl)-2-(7-methyl-1H-indazol-5-yl)ethyl)-4-(2-oxo-1,2-dihydroquinazolin-3(4H)-yl)piperidine-1-carboxamide] gave an IC50 of less than 10 nM. In the case of `Cc1cc(C)nc(C(Cc2cc(C)c3[nH]ncc3c2)OC(=O)N2CCC(N3Cc4cccc(F)c4NC3=O)CC2)n1` (stereo not drawn) [Example 63, 1-(4,6-Dimethylpyrimidin-2-yl)-2-(7-methyl-1H-indazol-5-yl)ethyl 4-(8-fluoro-2-oxo-1,2-dihydroquinazolin-3(4H)-yl)piperidine-1-carboxylate], the IC50 is reported as 100 to 1000 nM. Molecule `Cc1cc(CC(NC(=O)N2CCC(N3Cc4ccccc4NC3=O)CC2)c2ccccn2)cc2cn[nH]c12` (racemic) [Example 31, (±)-N-(2-(7-Methyl-1H-indazol-5-yl)-1-(pyridin-2-yl)ethyl)-4-(2-oxo-1,2-dihydroquinazolin-3(4H)-yl)piperidine-1-carboxamide] has an IC50 of less than 10 nM. For `Cc1cc(CC(OC(=O)N2CCC(N3Cc4ccccc4NC3=O)CC2)c2cc(C=O)ccn2)cc2cn[nH]c12` (racemic) [Example 47, (±)-1-(4-Formylpyridin-2-yl)-2-(7-methyl-1H-indazol-5-yl)ethyl 4-(2-oxo-1,2-dihydroquinazolin-3(4H)-yl)piperidine-1-carboxylate], the IC50 was less than 10 nM. With `Cc1cc(CC(NC(=O)N2CCC(N3Cc4ccccc4NC3=O)CC2)c2nccn2Cc2ccccc2F)cc2cn[nH]c12` (racemic) [Example 71, (±)-N-(1-(1-(2-Fluorobenzyl)-1H-imidazol-2-yl)-2-(7-methyl-1H-indazol-5-yl)ethyl)-4-(2-oxo-1,2-dihydroquinazolin-3(4H)-yl)piperidine-1-carboxamide] the IC50 was less than 10 nM. `Cc1cc(CC(CC(=O)N2CCC(N3Cc4ccccc4NC3=O)CC2)c2nc(-c3ccccc3)no2)cc2cn[nH]c12` (racemic) [Example 4, (±)-3-{1-[4-(7-Methyl-1H-indazol-5-yl)-3-(3-phenyl-[1,2,4]oxadiazol-5-yl)-butyryl]-piperidin-4-yl}-3,4-dihydro-1H-quinazolin-2-one] was tested, and the IC50 was 10 to 100 nM. Work on `Cc1cc(CC(NC(=O)N2CCC(N3Cc4ccccc4NC3=O)CC2)c2nccn2Cc2cccc(F)c2)cc2cn[nH]c12` (racemic) [Example 68, (±)-N-(1-(1-(3-Fluorobenzyl)-1H-imidazol-2-yl)-2-(7-methyl-1H-indazol-5-yl)ethyl)-4-(2-oxo-1,2-dihydroquinazolin-3(4H)-yl)piperidine-1-carboxamide] yielded an IC50 of less than 10 nM. For `Cc1cc(C[C@@H](OC(=O)N2CCC(c3cc4ccccc4[nH]c3=O)CC2)c2nc(-c3cccnc3)no2)cc2cn[nH]c12` [Example 102, (R)-2-(7-Methyl-1H-indazol-5-yl)-1-(3-(pyridin-3-yl)-1,2,4-oxadiazol-5-yl)ethyl 4-(2-oxo-1,2-dihydroquinolin-3-yl)piperidine-1-carboxylate], the IC50 was 10 to 100 nM.

From patent US7569578B2, “Heterocyclic anti-migraine agents” (Bristol-Meyers Squibb Company, priority 2003, dated 2009)
